The values below come from patent US4209441A, “Anti-gastric secretion polypeptide” (American Home Products Corporation, priority 1979, dated 1980).

Format in all cases: in vivo, rat
One assay relates to insulin. Description: Suppression of insulin in arginine-stimulated rats. The conditions noted are these: for reduction in insulin in vivo (in words): tested in vivo by standard methods. The procedure: (§1) Albino male rats are administered Nembutol intraperitoneally at a dose of 50 mg/kg. Fifteen minutes later a subcutaneous injection of the test compound or physiological saline is administered. Ten minutes later 0.5 ml. of arginine (300 mg/ml, pH 7.2) is injected into the heart. Five minutes after receipt of the arginine the rats are decapitated and blood is collected into Trasylol-EDTA. An appropriate aliquot is assayed for insulin and glucagon.

The next assay has as its system glucagon. Description: Suppression of glucagon in arginine-stimulated rats. The conditions noted are these: for reduction in glucagon in vivo (in words): tested in vivo by standard methods. The procedure: as §1
The test system of assay [1] is gastric acid secretion (total acid output). Put plainly: Anti-secretory activity in pylorus-ligated rats (total acid output over four hours). The settings on record: for Percentage Inhibition (of Total Acid Output): i.d. administration, pylorus-ligated rats, 4 hr, versus control group. The procedure:
The polypeptide of this invention was tested and found active parenterally (s.c.) in the following scientifically recognized, standard test for anti-secretory activity;
Male Charles River rats of Sprague-Dawley strain and 190 to 240 gm. body weight are food deprived for 24 hr. with water ad libitum until the test. Groups of ten rats each are assigned to either control or drug treatment. Pyloric ligation was performed under ether anesthesia through a midline laparotomy, and either control vehicle (0.25 methylcellulose) or drug in control vehicle was administered intraduodenally. The rats are sacrificed by CO2 asphyxiation four hours after pyloric ligation. The stomachs are removed and the gastric contents emptied into graduated centrifuge tubes. The gastric samples are centrifuged for 20 min. and those obviously contaminated by food, blood or feces are discarded. The volume of gastric fluid is recorded and the acid concentration of 1.0 ml. sample aliquots is measured by electrometric titration to pH 7.0 with 0.1 N NaOH. The calculated product of gastric volume (ml/4 hr.) and acid concentration (mEq/L) estimates the total acid output (TAO, mEq/4 hr.) over the four-hour test period.
An index of drug gastric antisecretory activity is reported at the end of the example illustrating its production. The results, expressed as percentage inhibition, show the reduction of acid secretion in drug-treated compared to control groups, based upon i.d. administration of 2 mg/kg and 0.5 mg/kg of the tested compound. In addition, the effect of the polypeptide in the control of insulin and glucagon secretion is reported at a dose of 750 micrograms per kilogram.

Setting [2] is: listed as compound of this invention.
The mark [3] stands for this setting: listed as polypeptide of the invention.

SMILES strings stand for the structures. Structures can show the parent of a compound that is named as a salt. Bridge positions count the residues as written; N and C are the ends. Square brackets hold non-standard residues; d marks the D form. Peptide text beside a SMILES is read from it.

Consider `C[C@H](N)C(=O)NCC(=O)N[C@H]1CSSC[C@@H](C(=O)O)NC(=O)[C@H](CO)NC(=O)[C@H]([C@@H](C)O)NC(=O)[C@H](Cc2ccccc2)NC(=O)[C@H]([C@@H](C)O)NC(=O)[C@H](CCCCN)NC(=O)[C@H](Cc2c[nH]c3ccccc23)NC(=O)[C@H](Cc2ccccc2)NC(=O)[C@H](Cc2ccccc2)NC(=O)[C@H](CC(N)=O)NC(=O)[C@H](CCCCN)NC1=O` [Somatostatin, reference compound], for which the “dose that effectively inhibits secretion of insulin” value in the assay with insulin (same test procedure) was “about 10 micrograms per kilogram”. Further, the “dose that effectively inhibits secretion of glucagon” value in the assay on glucagon (same test procedure) is on record as “about 10 micrograms per kilogram”.

With `C[C@H](N)C(=O)NCC(=O)N[C@H]1CSSC[C@@H](C(=O)O)NC(=O)[C@H](CO)NC(=O)[C@H]([C@@H](C)O)NC(=O)[C@H](Cc2ccc(O)cc2)NC(=O)[C@H]([C@@H](C)O)NC(=O)[C@H](CCCCN)NC(=O)[C@@H](Cc2c[nH]c3ccccc23)NC(=O)[C@H](Cc2ccccc2)NC(=O)[C@H](Cc2ccccc2)NC(=O)[C@H](CC(N)=O)NC(=O)[C@H](CCCCN)NC1=O` [Example 5, L-alanylglycyl-L-cysteinyl-L-lysyl-L-asparaginyl-L-phenylalanyl-L-phenylalanyl-D-tryptophyl-L-lysyl-L-threonyl-L-tyrosyl-L-threonyl-L-seryl-L-cysteine cyclic (3-14)-disulfide, triacetate-salt] (H-AGCKNFF[dW]KTYTSC-OH; disulfide 3-14), the “Percentage Inhibition (of Total Acid Output)” value is 38% in assay [1] (0.5 mg/kg) and 68% in assay [1] (2 mg/kg). In addition, in assay [1] (parenterally (s.c.)), the “anti-secretory activity (in words)” value is “active”. In the assay with insulin (750 μg/kg subcutaneous, arginine-stimulated rats, blood 15 min after dosing, control 283 ± 28), this molecule gave an Insulin of 238 ± 42 μU/ml. Moreover, the “reduction in insulin in vivo (in words)” value with insulin (setting [2]) is “no meaningful reduction”; in the assay with insulin (setting [3]), “without materially affecting”. This molecule registered a Glucagon in the assay with glucagon (750 μg/kg subcutaneous, arginine-stimulated rats, blood 15 min after dosing, control 55 ± 5) of 35 ± 9 pg/mL. Also, the “reduction in glucagon in vivo (in words)” value was “no meaningful reduction” with glucagon (setting [2]) and “without materially affecting” with glucagon (setting [3]).
